Results on seven compounds are retold here after patent US20190275052A1, “COMBINATION THERAPY OF AN HBV CAPSID ASSEMBLY INHIBITOR AND A NUCLEOS(T)IDE ANALOGUE” (Hoffmann-La Roche Inc., priority 2016, published 2019).

Assay [1] concerns HBV. The assay is described as follows: anti-HBV activity in HBV infected differentiated HepaRG cells (HBV DNA in supernatant by qPCR; checkerboard combination, isobologram model). The assay is classed as cell-based, HBV (genotype D). The conditions noted are these: Hepatitis B virus, 264 h, mean of 3 independent experiments. How it is done: HepG2.2.15 cells were cultured in DMEM+Glutamax I (Gibco, #21885) supplemented with 10% FBS, 1% Pen/Strep (Gibco, #15140) and G-418 (250 μg/mL) and used for production of infectious HBV (genotype D). 90% confluent cells from three T175 flasks were trypsinized and transferred into one collagen coated hyperflask (550 mL). Once the cells are confluent, medium was changed to DMEM+Glutamax I with 1% DMSO and 2.5% FBS. Once the cells were slightly over confluent, medium was changed to DMEM/F12+Glutamax I (Gibco, #31331) supplemented with MEM non-essential amino acids (6 mL, Gibco, #11140), Pen/Strep (6 mL), sodium pyruvate (6 mL), DMSO (9 mL) and FBS (10 mL) (all per 500 mL medium). Medium was changed every 3 days and supernatants were harvested for 2 weeks. Virus was concentrated from supernatants by PEG precipitation and the titer (genome equivalent (GE)/mL) was determined by qPCR. Briefly, supernatants were mixed with 40% PEG solution at a ratio of 4:1, incubated on a shaker at 4° C. overnight and then centrifuged using 50 mL falcon tubes at 4° C. for one hour at 3724 g (RCF). The supernatant was discarded and the centrifugation step was repeated with new supernatant reusing the tubes until all PEG-precipitated supernatant was processed. The pellets were re-suspended in William's E Medium (Gibco, #22551) at a concentration of 10^7-10^9 genome equivalents (GE) per mL and frozen at −80° C. DNA copy number calculation was based on a standard curve generated from HBV plasmid dilutions with known concentrations.
HepaRG cells (Biopredic International, Saint-Gregoire, France) were cultured in working growth medium (500 mL Willams E Medium with 50 mL HepaRG Growth supplement from Biopredic, 5 mL Glutamax-I (Gibco, #35050) and 5 mL Pen/Strep) for 2 weeks. After 2 weeks medium was changed to differentiation medium containing 1.8% DMSO (500 mL Willams E Medium with 50 mL HepaRG Growth supplement from Biopredic, 5 mL Pen/Strep, 5 mL Glutamax-I and 9 mL DMSO). Medium was changed twice a week up to 2 weeks. Once fully differentiated, cells were trypsinized and seeded into collagenated 96 well plates (50,000 cells/well in 100 μL) in differentiation medium. Cells were cultured at least 5 days in the 96 well plates before they were infected with HBV.
For HBV infection of differentiated HepaRG cells, differentiation medium was removed and new differentiation medium (120 μL/well) containing 4% PEG-8000 and virus stock (20 to 30 GE/cell) was added. Cells were cultured at 37° C. for 16 to 20 h before medium was removed, cells were washed 4 times with PBS and new differentiation medium (120 μL/well) was added.
At day 4 post infection, medium was removed and 100 μL new differentiation medium was added to each well. 3-fold serial dilutions (5 μL compound to 10 μL DMSO) of Drug A and Drug B were prepared in 100% DMSO starting with 15 μL undiluted compound solution (400-fold concentration of highest test concentration). 5 μL of drug A and B dilutions were then added to 990 μL medium (containing 0.8% DMSO) in a 96 deep well plate in a fashion according to the design shown in Table 3. 100 μL thereof were added to the HepaRG cells with a final DMSO concentration of 1.8%. Drug A tested was Compound 6; Drug B tested was Compound 1, Compound 2, Compound 3, Compound 4 or Compound 5. The concentration ranges tested were 1 nM to 0.01 nM for Compound 6, and 300 nM to 0.412 nM for Compound 1 to 5. Medium was replaced by new medium with compound at day 7 post infection and at day 11 post infection cell supernatants were harvested and directly used for HBV DNA extraction or stored at −20° C. Cell viability of the cells was determined using the cell viability assay described below.
HBV DNA from HepaRG cell supernatants was extracted using the MagNA Pure 96 (Roche) robot. 100 μL of the supernatants were mixed in a processing cartridge with 200 μL MagNA Pure 96 external lysis buffer (Roche, Cat. No. 06374913001) and incubated for 10 minutes. […]
In general terms: Quantitative PCR measures a nucleic acid by following its amplification.

Assay [2] relates to HBV. The conditions noted are these: HBV infected transgenic or humanized mice; Deres 2003, Brezillon 2011; cited from earlier work.
Where [3] appears, read: individual compound alone, from the combination studies, HBV DNA in supernatant day 11 post infection, read-out: EC50 ± SD (n) Drug A.

Like-named read-outs stand apart in the source and are kept apart here.

As usually defined, the EC50 is the midpoint of the concentration-response curve. As for `COC(=O)C1=C(CN2CCN3C(=O)N(CC(C)(C)C(=O)O)CC3C2)NC(c2nccs2)=N[C@H]1c1ccc(F)cc1Cl` (stereo in doubt) [Compound 5, 3-[(8aS)-7-[[(4R)-4-(2-chloro-4-fluoro-phenyl)-5-methoxycarbonyl-2-thiazol-2-yl-1,4-dihydropyrimidin-6-yl]methyl]-3-oxo-5,6,8,8a-tetrahydro-1H-imidazo[1,5-a]pyrazin-2-yl]-2,2-dimethyl-propanoic acid], the EC50 in assay [1] (setting [3]) stood at 24.8 nM.

For the compound `COC(=O)C1=C(C)NC(c2ncc(F)cc2F)=N[C@H]1c1ccc(F)cc1Cl` [Bay 41-4109], the “in vivo efficacy (HBV DNA reduction)” value in assay [2] is given as “demonstrated in vivo efficacy with HBV DNA reduction”.

On to `CCOC(=O)C1=C(CN2CCN3C(=O)N(CC(C)(C)C(=O)O)C[C@@H]3C2)NC(c2nccs2)=N[C@H]1c1cccc(F)c1C` [Compound 2, 3-[(8aS)-7-[[(4S)-5-ethoxycarbonyl-4-(3-fluoro-2-methyl-phenyl)-2-thiazol-2-yl-1,4-dihydropyrimidin-6-yl]methyl]-3-oxo-5,6,8,8a-tetrahydro-1H-imidazo[1,5-a]pyrazin-2-yl]-2,2-dimethyl-propanoic acid], for which the concentration giving a half-maximal response (EC50) in assay [1] (setting [3]) was 5.8 nM.

For `C=C1[C@H](CO)[C@@H](O)C[C@@H]1n1cnc2c(=O)[nH]c(N)nc21` [Compound 6, Entecavir, reference compound], the EC50 in assay [1] (Compound 6 alone, from the combination study with the Drug A of the same row, HBV DNA day 11 post infection, read-out: EC50 ± SD (n) Drug B) worked out at 0.07 nM.

Consider `COC(=O)C1=C(CN2CCOC[C@H]2C(=O)O)NC(c2nccs2)=N[C@H]1c1ccc(F)cc1Cl` [Compound 1, (S)-4-[(R)-6-(2-Chloro-4-fluoro-phenyl)-5-methoxycarbonyl-2-thiazol-2-yl-3,6-dihydro-pyrimidin-4-ylmethyl]-morpholine-3-carboxylic acid], for which the EC50 in assay [1] (setting [3]) was found to be 19.9 nM.

Consider `COC(=O)C1=C(CN2CCN3C(=O)N(CC(C)(C)CC(=O)O)C[C@@H]3C2)NC(c2nccs2)=N[C@H]1c1ccc(F)cc1Cl` [Compound 4, 4-[(8aS)-7-[[(4R)-4-(2-chloro-4-fluoro-phenyl)-5-methoxycarbonyl-2-thiazol-2-yl-1,4-dihydropyrimidin-6-yl]methyl]-3-oxo-5,6,8,8a-tetrahydro-1H-imidazo[1,5-a]pyrazin-2-yl]-3,3-dimethyl-butanoic acid], for which the EC50 in assay [1] (setting [3]) is 16.2 nM.

For `CCOC(=O)C1=C(CN2CCN3C(=O)N(CC(C)(C)C(=O)O)C[C@@H]3C2)NC(c2nccs2)=N[C@H]1c1cccc(F)c1Cl` [Compound 3, 3-[(8aS)-7-[[(4R)-4-(2-chloro-3-fluoro-phenyl)-5-ethoxycarbonyl-2-thiazol-2-yl-1,4-dihydropyrimidin-6-yl]methyl]-3-oxo-5,6,8,8a-tetrahydro-1H-imidazo[1,5-a]pyrazin-2-yl]-2,2-dimethyl-propanoic acid], the EC50 in assay [1] (setting [3]) came to 7.5 nM.
